According to US20170190671A1, “BIS(ARYL)CATECHOL DERIVATIVES AS HERBICIDES” (E I DU PONT DE NEMOURS AND COMPANY, priority 2014, published 2017):

How the values were obtained:
Test in all cases: Test C postemergence
Format in all cases: in vivo
[1] = tested on: blackgrass (Alopecurus myosuroides); conditions: Alopecurus myosuroides, post-emergence, 336 h, Postemergence, scale 0 to 100, read-out: Plant response rating, Blackgrass
[2] = tested on: soybean (Glycine max); conditions: Glycine max, post-emergence, Postemergence, scale 0 to 100, read-out: Plant response rating, Soybean
[3] = tested on: johnsongrass (Sorghum halepense); conditions: Sorghum halepense, post-emergence, 336 h, Postemergence, scale 0 to 100, read-out: Plant response rating, Johnsongrass
[4] = tested on: lambsquarters (Chenopodium album); conditions: Chenopodium album, post-emergence, 336 h, Postemergence, scale 0 to 100, read-out: Plant response rating, Lambsquarters
[5] = tested on: ragweed (common ragweed, Ambrosia elatior); conditions: Ambrosia artemisiifolia, post-emergence, 336 h, Postemergence, scale 0 to 100, read-out: Plant response rating, Ragweed
[6] = tested on: corn (Zea mays); conditions: Zea mays, post-emergence, 336 h, Postemergence, scale 0 to 100
[7] = tested on: morningglory (Ipomoea coccinea); conditions: Ipomoea, post-emergence, 336 h, Postemergence, scale 0 to 100, read-out: Plant response rating, Morningglory
[8] = tested on: giant foxtail (Setaria faberii); conditions: Setaria faberi, post-emergence, 336 h, Postemergence, scale 0 to 100, read-out: Plant response rating, Foxtail, Giant
[9] = tested on: velvetleaf (Abutilon theophrasti); conditions: Abutilon theophrasti, post-emergence, Postemergence, scale 0 to 100, read-out: Plant response rating, Velvetleaf
[10] = tested on: oilseed rape (Brassica napus); conditions: Brassica napus, post-emergence, Postemergence, scale 0 to 100, read-out: Plant response rating, Oilseed Rape
[11] = tested on: large (Lg) crabgrass (Digitaria sanguinalis); conditions: Digitaria sanguinalis, post-emergence, 336 h, Postemergence, scale 0 to 100, read-out: Plant response rating, Crabgrass, Large
[12] = tested on: barnyardgrass (Echinochloa crus-galli); conditions: Echinochloa crus-galli, post-emergence, Postemergence, scale 0 to 100, read-out: Plant response rating, Barnyardgrass
[13] = tested on: Italian ryegrass (Lolium multiflorum); conditions: Lolium multiflorum, post-emergence, 336 h, Postemergence, scale 0 to 100, read-out: Plant response rating, Ryegrass, Italian
[14] = tested on: winter wheat (Triticum aestivum); conditions: Triticum aestivum, post-emergence, 336 h, Postemergence, scale 0 to 100, read-out: Plant response rating, Wheat

Structure (SMILES): Fc1cnc(Oc2c(Cl)cccc2Oc2ncc(Cl)cn2)nc1 [Compound 18, 5-chloro-2-[5-chloro-6-[(5-fluoro-2-pyrimidinyl)oxy]phenoxy]pyrimidine]
- pest or weed control at 31 g/ha ([1]; 31 g ai/ha): 0%
- pest or weed control at 62 g/ha ([1]; 62 g ai/ha): 5%
- pest or weed control at 125 g/ha ([1]; 125 g ai/ha): 5%
- pest or weed control at 250 g/ha ([1]; 250 g ai/ha): 45%
- plant injury at 31 g/ha ([2]; 31 g ai/ha): 75%
- plant injury at 62 g/ha ([2]; 62 g ai/ha): 85%
- plant injury at 125 g/ha ([2]; 125 g ai/ha): 90%
- plant injury at 250 g/ha ([2]; 250 g ai/ha): 95%
- pest or weed control at 31 g/ha ([3]; 31 g ai/ha): 5%
- pest or weed control at 62 g/ha ([3]; 62 g ai/ha): 10%
- pest or weed control at 125 g/ha ([3]; 125 g ai/ha): 5%
- pest or weed control at 250 g/ha ([3]; 250 g ai/ha): 10%
- pest or weed control at 31 g/ha ([4]; 31 g ai/ha): 65%
- pest or weed control at 62 g/ha ([4]; 62 g ai/ha): 90%
- pest or weed control at 125 g/ha ([4]; 125 g ai/ha): 95%
- pest or weed control at 250 g/ha ([4]; 250 g ai/ha): 95%
- pest or weed control at 31 g/ha ([5]; 31 g ai/ha): 65%
- pest or weed control at 62 g/ha ([5]; 62 g ai/ha): 75%
- pest or weed control at 125 g/ha ([5]; 125 g ai/ha): 90%
- pest or weed control at 250 g/ha ([5]; 250 g ai/ha): 95%
- Corn plant response rating (crop injury, 0 = no effect, 100 = complete kill) at 31 g/ha ([6]; 31 g ai/ha): 5%
- Corn plant response rating (crop injury, 0 = no effect, 100 = complete kill) at 62 g/ha ([6]; 62 g ai/ha): 5%
- Corn plant response rating (crop injury, 0 = no effect, 100 = complete kill) at 125 g/ha ([6]; 125 g ai/ha): 20%
- Corn plant response rating (crop injury, 0 = no effect, 100 = complete kill) at 250 g/ha ([6]; 250 g ai/ha): 55%
- pest or weed control at 31 g/ha ([7]; 31 g ai/ha): 75%
- pest or weed control at 62 g/ha ([7]; 62 g ai/ha): 70%
- pest or weed control at 125 g/ha ([7]; 125 g ai/ha): 85%
- pest or weed control at 250 g/ha ([7]; 250 g ai/ha): 95%
- pest or weed control at 31 g/ha ([8]; 31 g ai/ha): 15%
- pest or weed control at 62 g/ha ([8]; 62 g ai/ha): 5%
- pest or weed control at 125 g/ha ([8]; 125 g ai/ha): 25%
- pest or weed control at 250 g/ha ([8]; 250 g ai/ha): 45%
- pest or weed control at 31 g/ha ([9]; 31 g ai/ha): 45%
- pest or weed control at 62 g/ha ([9]; 62 g ai/ha): 60%
- pest or weed control at 125 g/ha ([9]; 125 g ai/ha): 70%
- pest or weed control at 250 g/ha ([9]; 250 g ai/ha): 85%
- plant injury at 31 g/ha ([10]; 31 g ai/ha): 20%
- plant injury at 62 g/ha ([10]; 62 g ai/ha): 35%
- plant injury at 125 g/ha ([10]; 125 g ai/ha): 50%
- plant injury at 250 g/ha ([10]; 250 g ai/ha): 80%
- pest or weed control at 31 g/ha ([11]; 31 g ai/ha): 5%
- pest or weed control at 62 g/ha ([11]; 62 g ai/ha): 5%
- pest or weed control at 125 g/ha ([11]; 125 g ai/ha): 55%
- pest or weed control at 250 g/ha ([11]; 250 g ai/ha): 70%
- pest or weed control at 31 g/ha ([12]; 31 g ai/ha): 5%
- pest or weed control at 62 g/ha ([12]; 62 g ai/ha): 5%
- pest or weed control at 125 g/ha ([12]; 125 g ai/ha): 5%
- pest or weed control at 250 g/ha ([12]; 250 g ai/ha): 10%
- pest or weed control at 31 g/ha ([13]; 31 g ai/ha): 0%
- pest or weed control at 62 g/ha ([13]; 62 g ai/ha): 0%
- pest or weed control at 125 g/ha ([13]; 125 g ai/ha): 0%
- pest or weed control at 250 g/ha ([13]; 250 g ai/ha): 40%
- plant injury at 31 g/ha ([14]; 31 g ai/ha): 0%
- plant injury at 62 g/ha ([14]; 62 g ai/ha): 0%
- plant injury at 125 g/ha ([14]; 125 g ai/ha): 0%
- plant injury at 250 g/ha ([14]; 250 g ai/ha): 15%
